Assay results from patent US20090047369A1, “Composition Comprising 4-Carbon Dicarboxlic Acids for Improvement of Memory Function” (Eubioslab Co., Ltd, priority 2006, published 2009).

Key:
ischemia-induced brain = conditions: administered after hypoxia; Ann. Thorac. Surg. 1994; cited from earlier work
Sprague Dawley rats [1] = assay: probe test after Morris water maze learning (platform removed); format: in vivo
Experimental: (§1) In the Morris water maze test, each of the test animals was given four swimming trials per session per day for 4-5 days. When the escape latency of the test animal, that is, the time for the test animal to reach a hidden platform 2 cm below the surface of water, became shorter than 10±2 seconds during the repeat of the learning sessions, a probe test was performed after 24 hours one time for 60 seconds without the platform. The probe test was performed by removing the platform from the swimming pool and observing the swimming behavior of the test animals. In the probe test, as measures of spatial working memory, the retention time and movement distance of the test animals in the same area of a quadrant region including the position in which the platform was present during the first learning period were analyzed and compared with those of the control group.
At 5 days, that is, after 24 hours when the escape time for the learned test animals to reach the platform became an average of 10±2 seconds, the platform was removed and a probe test was performed one time. The test results are shown in FIG. 1(b) to analyze an improvement in learning and memory for spatial recognition functions.

Sprague Dawley rats [2] = assay: Morris water maze test (escape time to hidden platform); format: in vivo
Experimental: In the Morris water maze test, each of the test animals was given four swimming trials per session per day for 4-5 days. When the escape latency of the test animal, that is, the time for the test animal to reach a hidden platform 2 cm below the surface of water, was shortened to about 10±2 seconds during the repeat of the learning sessions, a probe test was performed after 24 hours one time for 60 seconds without the platform.
In the present invention, the effect of formulated drugs on the improvement of learning and memory for spatial recognition of a normal test animal group (Sprague Dawley rats) was tested by administering the drugs to the test animals orally or through drinking water for 2, 3 or 4 weeks and performing a Morris water maze test at 2, 3 or 4 weeks after the drug administration.
as §1
Starting from 4 weeks of the administration, a Morris water maze test was performed at a given time point daily four times per day for 4 days to analyze the effect of each composition on the improvement of learning and memory for spatial recognition function of the test animals. As the test results are shown in FIG. 1(a) showing the escape time of each group.

cerebral cortex = conditions: normal persons; Saarma J. et al. 1975; cited from earlier work
[3] = administered for 1 week; Jpn J Psychiatry Neurol 1991; cited from earlier work
[4] = fumaric acid 100 mg/kg with Tween80 100 mg/kg (FA100Tw100 group), drinking water 4 weeks, vs Tw50 control

SMILES: O=C(O)/C=C/C(=O)O [fumaric acid]
- nerve protective effect (ischemia-induced brain): nerve protective effects
- improvement of working memory (Sprague Dawley rats [1]; [4]): significant (p<0.05) effect on the improvement of both learning and working memory
- improvement of learning (escape time) (Sprague Dawley rats [2]; [4]): significant (p<0.05) effect on the improvement of both learning and working memory
- effect on the improvement of learning and memory (Sprague Dawley rats [2]; fumaric acid given with Tween80 (FA50Tw50, FA100Tw100 groups) through drinking water 4 weeks, vs Tw50 control): dose-dependent effect on the improvement of learning and memory

SMILES: O=C(O)CCC(=O)O [succinic acid]
- working memory in the probe test (Sprague Dawley rats [1]; succinic acid 100 mg/kg with Span80 200 mg/kg (SA100Sp200 group), drinking water 3 weeks, vs DW control): insignificant (P=0.089) improvement in working memory
- learning ability in the Morris water maze test (Sprague Dawley rats [2]; succinic acid 100 mg/kg with Span80 200 mg/kg (SA100Sp200 group), drinking water 3 weeks, session 4, P<0.001 vs DW control, Mann Whitney U test): significant increase in learning ability

SMILES: O=C(O)CCC(=O)O [SS, sodium succinate]
- excitability of the cerebral cortex (cerebral cortex): stabilizes the excitability of the cerebral cortex

SMILES: CN(C)CCCN1c2ccccc2CCc2ccccc21 [imipramine]
- antidepressant effect [3]: significant antidepressant effect

SMILES: O=CCCC(=O)O [SSA, succinic semialdehyde, reference compound]
- excitability of the cerebral cortex (cerebral cortex): enhances the excitability of the cerebral cortex
